How the values were obtained:
CCM3^-/- BMECs = experiment: hiPSC-derived BMEC co-culture, fluorescent imaging of clonal expansion; assay type: cell-based, human; details: 10 µM for six days, released, another six days under standard conditions
Description: Fluorescently tagged human induced pluripotent stem cells (Coriell Institute, Camden, NJ, USA) were maintained at 37 °C and 5 % CO2 in Essential 8 Flex medium (Thermo Fisher Scientific, Waltham, MA, USA) on plates coated with growth factor reduced matrigel (Corning Inc., Corning, NY, USA). Cells were passaged with 0.5 mM EDTA (Thermo Fisher Scientific). The following endogenously tagged cell lines as part of the Allen Cell Collection (Coriell Institute) were used: AICS-0036-006:WTC-mEGFP-Safe harbor locus (AAVS1)-cl6 and AICS-0054-091:WTC-mTagRFPT-CAAX-Safe harbor locus (AAVS1)-cl91.
CCM3^+/+ AICS-0054 hiPSCs, CCM3^+/+ and CCM3^-/- AICS-0036 hiPSCS were differentiated into human brain microvacular endothelial-like cells (hBMECs). Briefly, 158,000 cells were seeded in Essential 8 Flex medium containing 10 µM Y-27632 on growth factor reduced Matrigel-coated 6-well plates. After 24 h, differentiation was initiated by substitution of Essential 8 Flex with Essential 6 medium (Thermo Fisher Scientific). Medium was changed daily for 4 days. […] The ratio of EGFP-tagged AICS-0036 cells compared to all cells was determined using the ImageJ software. […]

CCM3^-/- CI-huVECs [1] = experiment: CyQuant cell proliferation assay combined with mutant allele frequencies, co-culture (mutant cells); assay type: cell-based, human; details: six days
Description: Clonally expanded CI-huVEC lines with biallelic loss-of-function variants in the first coding exon of CCM3 have been described before or were established according to a published CRISPR/Cas9 genome editing protocol. Blood outgrowth endothelial cells (BOECs) were cultured in EGM-2 medium (Lonza, Basel, Switzerland) supplemented with 18 % FCS. With the approval of the local ethics committee (University Medicine Greifswald, Germany; No.: BB 047/14a), CCM1^-/- BOECs had been established previously from CCM1^+/- BOECs of a CCM1 mutation carrier with CRISPR/Cas9 genome editing. Mutant and wild-type ECs were co-cultured in 96-well plates under standard culture conditions with the indicated mutant-to-wild-type ratios. 2500 cells were seeded per well. The proliferation rate of mutant and wild-type ECs in monoculture was quantified with the CyQuant® Cell Proliferation Assay Kit (C7026, Thermo Fisher Scientific). To discriminate the proliferation rates of CCM3^+/+ and CCM3^-/- CI-huVEC in co-culture, the CyQuant® Cell Proliferation Assay results were combined with mutant allele frequencies that had been determined by amplicon deep sequencing. To analyse their sensitivity to apoptosis, mutant and wild-type ECs were seeded in 96-well plates with 15.000 cells per well, and treated with staurosporine ([…], Sigma-Aldrich, St. Louis, MO, USA) 24 h later. The Caspase-3 DEVD-R110 Fluorometric HTS Assay Kit (30009, Biotium, Fremont, CA, USA), the Cell Meter^TM Caspase 8 Activity Apoptosis Assay Kit (22798, AAT Bioquest, Sunnyvale, CA, USA), and the Cell Meter^TM Caspase 9 Activity Apoptosis Assay Kit (22799, AAT Bioquest) were used following the manufacturer's instructions.

CI-huVECs = experiment: Bright-field microscopy of EC morphology after compound treatment; assay type: cell-based, human; details: library screening follow-up (Fig. 14)
colon-tumour xenografts = details: cited from earlier work
CCM3^-/- CI-huVECs [2] = experiment: Targeted RNA sequencing (apoptosis and cell death panel); assay type: cell-based, human; details: 10 µM, 24 h
Text: RNA was extracted using the PeqGold TriFast reagent (Peqlab-VWR, Radnor, PA, USA) and purified using the Direct-zol RNA MiniPrep Plus Kit (Zymo Research, Irvine, CA, USA). A Qubit 4.0 (Thermo Fisher Scientific) and the Qubit RNA BR Assay Kit (Q10211, Thermo Fisher Scientific) were used to measure RNA concentrations. RNA sample integrity was controlled on a 2100 Bioanalyzer using the RNA 6000 Nano Kit (Agilent, Santa Clara, CA, USA). A QIAseq Targeted Human Apoptosis and Cell Death RNA Panel (RHS-002Z, QIAGEN, Hilden, Germany) was used to prepare RNA sequencing libraries according to the manufacturer's instructions. After quality control with the High Sensitivity DNA Kit on a 2100 Bioanalyzer instrument (Agilent), the pooled libraries were sequenced on a MiSeq (Illumina) with 1x151 cycles. Differential gene expression of RNA sequencing data was carried out using the QIAseq Targeted RNA Primary and Secondary Analysis Tool (QIAGEN).

[3] = tested on: CCM3^+/+ and CCM3^-/- CI-huVECs; experiment: Cell viability after compound treatment; assay type: cell-based, human; details: 72 h after treatment (Fig. 15)

## CN1CCN(C(=O)/C=C/c2ccc([N+](=O)[O-])o2)CC1 [NSC59984, (E)-1-(4-methylpiperazin-1-yl)-3-(5-nitrofuran-2yl)prop-2-en-1-one]
CCM3^-/- BMECs
  Clonal expansion of CCM3^-/- BMECs in co-culture: blocked the clonal expansion of CCM3^-/- BMECs in co-culture
CCM3^-/- CI-huVECs [1]; 1 µM
  Relative proliferation rate of CCM3^-/- CI-huVECs: 4632%
CCM3^-/- CI-huVECs [1]; 5 µM
  Relative proliferation rate of CCM3^-/- CI-huVECs: 1671%
CCM3^-/- CI-huVECs [1]; 10 µM
  Relative proliferation rate of CCM3^-/- CI-huVECs: 419%
CI-huVECs
  EC morphology / endothelial phenotype: minimal effects on EC morphology
colon-tumour xenografts
  Adverse effects in xenograft mice: Without apparent adverse effects
colon-tumour xenografts; mice
  Growth of colon-tumour xenografts: repressed the growth of colon-tumour xenografts in mice
CCM3^-/- CI-huVECs [2]
  Expression of CDKN1A (p21), FC (fold change NSC59984 vs. DMSO treatment): 2.33
  Expression of GADD45A, FC (fold change NSC59984 vs. DMSO treatment): 2.11
  Expression of apoptosis-related p53 target genes BBC3 (PUMA) or PMAIP1 (Noxa): unaffected
[3]
  Cell viability differences between CCM3^+/+ and CCM3^-/- CI-huVECs: No cell viability differences

Source: patent EP4144350B1, “TREATMENT OR PREVENTION OF VASCULAR MALFORMATION” (Universitätsmedizin Greifswald, priority 2021, dated 2023)
